Holding throughout (format): biochemical
One assay concerns the target T1, aurora-A (Homo sapiens, UniProt O14965).
T1 construct: purchased Upstate, Dundee, UK
T1 sequence (O14965 1-403): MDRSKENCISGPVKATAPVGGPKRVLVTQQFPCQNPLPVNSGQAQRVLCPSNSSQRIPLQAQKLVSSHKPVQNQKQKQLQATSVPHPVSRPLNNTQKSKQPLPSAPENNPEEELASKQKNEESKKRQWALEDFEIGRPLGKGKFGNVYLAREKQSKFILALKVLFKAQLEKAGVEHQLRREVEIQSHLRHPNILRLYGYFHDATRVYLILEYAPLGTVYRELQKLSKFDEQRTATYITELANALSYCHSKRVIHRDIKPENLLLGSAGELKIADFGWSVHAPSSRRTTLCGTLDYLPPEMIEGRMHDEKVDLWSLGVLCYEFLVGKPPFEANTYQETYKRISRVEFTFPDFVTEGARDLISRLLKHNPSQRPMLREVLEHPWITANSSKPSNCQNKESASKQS
The assay can be described thus: Aurora-A (human) kinase assay. On the procedure: (§1) This was achieved by measurement of incorporation of radioactive phosphate from ATP into Kemptide substrate (LRRASLG), upon phosphorylation by commercially obtained aurora-A (human, Upstate, Dundee, UK). Assays were performed using 96-well plates and appropriate assay buffers (20 mM Tris, 25 mM β-glycerophosphate, 5 mM EGTA, 1 mM DTT, 1 mM sodium vanadate, pH 7.5), into which were added 2-5 ng of active enzyme with 500 μM substrate (Kemptide). The reactions were initiated by addition of MgATP mix (15 mM MgCl2+100 μM ATP with 15-25 kBq per well of [γ-^32P]-ATP) and mixtures incubated for 30 min at 30° C. Reactions were stopped by addition of an equal volume of 75 mM aq orthophosphoric acid, followed by filtration through p81 filterplates (Whatman Polyfiltronics, Kent, UK). After washing 4 times with 75 mM aq orthophosphoric acid, plates were dried, scintillant added and incorporated radioactivity measured in a scintillation counter (TopCount, Packard Instruments, Pangbourne, Berks, UK). Compounds for kinase assay were made up as 10 mM stocks in DMSO and diluted into 10% DMSO in assay buffer. Data was analysed using curve-fitting software (XLfit version 4.0.2, IDBS, Guildford, Surrey, UK) to determine IC50 values (concentration of test compound which inhibits kinase activity by 50%).

The target of another assay is CDK9/cyclin T1 (Homo sapiens, UniProt P50750). As to the kind of experiment: CDK 9 assay. On the procedure: CTD peptide substrate (biotinyl-Ahx-(Tyr-Ser-Pro-Thr-Ser-Pro-Ser)4-NH2; 1-2 mg/mL) and recombinant human CDK7/cyclin H, CDK9/cyclin TI, or CDK9/cyclin K (0.5-2 μg) were incubated for 45 min at 30° C. in the presence of varying amounts of test compound in 20 mM MOPS pH 7.2, 25 mM β-glycerophosphate, 5 mM EGTA, 1 mM DTT, 1 mM sodium vanadate, 15 mM MgCl2, and 100 μM ATP (containing a trace amount of ^32PγATP) in a total volume of 25 μL in a 96-well microtiter plate. The reaction was stopped by placing the plate on ice for 2 min. Avidin (50 μg) was added to each well, and the plate was incubated at room temp for 30 min. The samples were transferred to a 96-well P81 filter plate, and washed (4×200 μL per well) with 75 mM phosphoric acid. Microscint 40 scintillation liquid (50 μL) was added to each well, and the amount of ^32P incorporation for each sample was measured using a Packard Topcount microplate scintillation counter.

The next assay addresses T2, Flt-3 (Homo sapiens, UniProt P36888).
T2 construct: purchased Upstate, Dundee, UK
T2 sequence (P36888 564-993 limits assumed): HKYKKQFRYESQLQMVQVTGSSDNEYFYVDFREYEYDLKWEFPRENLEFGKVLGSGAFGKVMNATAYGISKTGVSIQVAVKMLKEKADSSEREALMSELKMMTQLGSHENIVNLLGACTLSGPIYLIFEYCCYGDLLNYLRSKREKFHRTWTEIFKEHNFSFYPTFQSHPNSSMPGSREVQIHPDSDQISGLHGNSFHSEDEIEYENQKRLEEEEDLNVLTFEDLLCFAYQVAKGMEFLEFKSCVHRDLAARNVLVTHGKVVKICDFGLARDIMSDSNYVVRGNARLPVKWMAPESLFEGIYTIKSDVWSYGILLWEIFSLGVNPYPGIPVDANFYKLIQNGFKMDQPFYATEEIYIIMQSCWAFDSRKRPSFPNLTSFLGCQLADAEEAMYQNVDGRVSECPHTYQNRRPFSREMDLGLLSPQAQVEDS
The assay can be described thus: Flt3 kinase assay. On the procedure:
as §1, with “myelin basic protein (MBP) substrate,” for “Kemptide substrate (LRRASLG),”, “Flt-3” for “aurora-A (human,”, “5” for “2-5”, “0.4 mg/ml” for “500 μM”, “(MBP).” for “(Kemptide).”

The mark [1] stands for this setting: Table 2, read-out: Kinase inhibition IC50 Aurora A.
[2] abbreviates: Table 2, read-out: Kinase inhibition IC50 CDK9T1.
Where [3] appears, read: Table 3, read-out: Kinase inhibition CDK9T1.
[4] abbreviates: Table 2, read-out: Kinase inhibition IC50 FLT3.
Where [5] appears, read: Table 3, read-out: Kinase inhibition Flt3.
The mark [6] stands for this setting: Table 3, values without asterisk, read-out: Kinase inhibition Aurora A.

Like-named read-outs stand apart in the source and are kept apart here.

Sequence of CDK9/cyclin T1 (P50750 whole entry): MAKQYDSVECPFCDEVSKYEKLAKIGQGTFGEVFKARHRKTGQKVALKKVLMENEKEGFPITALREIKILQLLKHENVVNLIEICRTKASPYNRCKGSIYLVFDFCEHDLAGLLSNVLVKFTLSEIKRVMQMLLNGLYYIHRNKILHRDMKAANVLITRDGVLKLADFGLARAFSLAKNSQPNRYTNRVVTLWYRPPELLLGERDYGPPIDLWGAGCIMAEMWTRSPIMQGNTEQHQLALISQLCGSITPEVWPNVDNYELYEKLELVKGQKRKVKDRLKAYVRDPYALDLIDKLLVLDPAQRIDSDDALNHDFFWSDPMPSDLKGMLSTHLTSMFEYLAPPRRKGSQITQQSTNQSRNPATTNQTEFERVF
Sequence of CDK9/cyclin T1 (O60563 whole entry partner): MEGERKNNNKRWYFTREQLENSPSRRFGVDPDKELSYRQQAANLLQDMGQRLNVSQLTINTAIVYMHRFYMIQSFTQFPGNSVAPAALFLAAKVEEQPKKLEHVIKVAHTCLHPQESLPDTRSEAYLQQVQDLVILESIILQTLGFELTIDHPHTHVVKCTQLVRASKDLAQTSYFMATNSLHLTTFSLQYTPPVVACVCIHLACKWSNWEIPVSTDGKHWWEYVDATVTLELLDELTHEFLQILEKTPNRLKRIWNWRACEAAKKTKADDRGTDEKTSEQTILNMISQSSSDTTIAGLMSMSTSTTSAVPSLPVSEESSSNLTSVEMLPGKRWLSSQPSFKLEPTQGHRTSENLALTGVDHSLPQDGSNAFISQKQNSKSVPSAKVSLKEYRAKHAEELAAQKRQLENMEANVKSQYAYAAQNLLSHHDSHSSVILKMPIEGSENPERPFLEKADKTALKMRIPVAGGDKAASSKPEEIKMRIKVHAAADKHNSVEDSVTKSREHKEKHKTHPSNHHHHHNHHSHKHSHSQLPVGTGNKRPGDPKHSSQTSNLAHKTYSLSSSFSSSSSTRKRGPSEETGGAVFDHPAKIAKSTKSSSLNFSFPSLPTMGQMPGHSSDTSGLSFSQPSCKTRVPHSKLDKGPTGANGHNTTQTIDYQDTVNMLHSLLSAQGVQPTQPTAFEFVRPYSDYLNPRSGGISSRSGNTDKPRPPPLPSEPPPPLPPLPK

As to `O=[N+]([O-])c1cccc(Nc2nccc(-c3c[nH]c4ccccc34)n2)c1` [Compound 2, [4-(1H-Indol-3-yl)-pyrimidin-2-yl]-(3-nitro-phenyl)-amine], the IC50 at aurora-A (setting [1]) worked out at 0.27 µM; on CDK9/cyclin T1 (setting [2]), 6.1 µM; at CDK9/cyclin T1 (setting [3]), 6.08 µM; at Flt-3 (setting [4]), 0.13 µM; at Flt-3 (setting [5]), 0.133 µM.
Regarding `Fc1ccc(Nc2nccc(-c3c[nH]c4ccccc34)n2)cc1` [Compound 3, (4-Fluoro-phenyl)-[4-(1H-indol-3-yl)-pyrimidin-2-yl]-amine], the IC50 was 1.1 µM on aurora-A (setting [1]), more than 100 µM at CDK9/cyclin T1 (setting [2]), 0.27 µM on Flt-3 (setting [4]) and 0.274 µM at Flt-3 (setting [5]).
Take `COc1ccc(Nc2nccc(-c3c[nH]c4ccccc34)n2)cn1` [Compound 4, [4-(1H-Indol-3-yl)-pyrimidin-2-yl]-(6-methoxy-pyridin-3-yl)-amine]: the IC50 is 0.24 µM on aurora-A (setting [1]); 2.8 µM on CDK9/cyclin T1 (setting [2]); 2.82 µM at CDK9/cyclin T1 (setting [3]); 0.15 µM on Flt-3 (setting [4]); 0.148 µM at Flt-3 (setting [5]).
On to `c1ccc2c(-c3ccnc(Nc4ccc(N5CCOCC5)cc4)n3)c[nH]c2c1` [Compound 5, [4-(1H-Indol-3-yl)-pyrimidin-2-yl]-(4-morpholin-4-yl-phenyl)-amine], for which the IC50 is 0.058 µM at aurora-A (setting [1]); 0.804 µM on aurora-A (setting [6]); more than 10 µM on CDK9/cyclin T1 (setting [2]); 0.052 µM on Flt-3 (setting [4]); 0.0516 µM on Flt-3 (setting [5]).
Consider `CC(=O)N1CCN(c2ccc(Nc3nccc(-c4c[nH]c5ccccc45)n3)cc2)CC1` [Compound 6, 4-(1H-indol-3-yl)-N-(4-acetylpiperazin-1-ylphenyl)pyrimidin-2-amine], for which the IC50 at aurora-A (setting [6]) was 0.13 µM; on CDK9/cyclin T1 (setting [3]), 2.08 µM; on Flt-3 (setting [5]) it was 0.0133 µM.
As to `c1ccc2c(-c3ccnc(Nc4ccc(N5CCNCC5)cc4)n3)c[nH]c2c1` [Compound 7, 4-(1H-indol-3-yl)-N-(4-piperazin-1-ylphenyl)pyrimidin-2-amine], the results for the IC50 at aurora-A (setting [6]), on CDK9/cyclin T1 (setting [3]) and on Flt-3 (setting [5]) were 0.221 µM, 0.52 µM and 0.0127 µM, respectively.
Taken in the same sequence, the figures for `CC1CN(c2ccc(Nc3nccc(-c4c[nH]c5ccccc45)n3)cc2)CC(C)O1` (stereo not shown) [Compound 9] were 0.277 µM, 3.03 µM and 0.0298 µM.
Regarding `CN(C)c1ccc(Nc2nccc(-c3c[nH]c4ccccc34)n2)cc1` [Compound 10, N′-[4-(1H-indol-3-yl)pyrimidin-2-yl]-N,N-dimethylbenzene-1,4-diamine], the IC50 was found to be 0.282 µM on aurora-A (setting [6]), 1.59 µM on CDK9/cyclin T1 (setting [3]) and 0.0849 µM on Flt-3 (setting [5]).
Turning to `COc1cc(Nc2nccc(-c3c[nH]c4ccccc34)n2)cc(OC)c1OC` [Compound 12, 4-(1H-indol-3-yl)-N-(3,4,5-trimethoxyphenyl)pyrimidin-2-amine], the IC50 at aurora-A (setting [6]) was 0.0534 µM; at CDK9/cyclin T1 (setting [3]), 1.26 µM; at Flt-3 (setting [5]) it was 0.0013 µM.
Take `COc1cc(Nc2nccc(-c3c[nH]c4ccccc34)n2)ccc1N1CCOCC1` [Compound 13, 4-(1H-indol-3-yl)-N-(3-methoxyl-4-morpholin-4-ylphenyl)pyrimidin-2-amine]: the figures for the IC50 on aurora-A (setting [6]), on CDK9/cyclin T1 (setting [3]) and at Flt-3 (setting [5]) were 0.112 µM, 4.24 µM and 0.0024 µM, respectively.
For `CC(=O)N1CCN(c2ccc(Nc3nccc(-c4c(C)[nH]c5ccccc45)n3)cc2)CC1` [Compound 22] the same measures were 0.0377 µM, 4.44 µM and 0.011 µM.
Taken in the same sequence, the figures for `CC(=O)N1CCN(c2ccc(Nc3nccc(-c4c[nH]c5c(C)cccc45)n3)cc2)CC1` [Compound 23] were 0.0917 µM, 1.54 µM and 0.0332 µM.

Values taken from US20090318446A1, “4-(1H-Indol-3-yl)-Pyrimidin-2-Ylamine Derivatives and Their Use in Therapy” (Cyclacel Limited, priority 2005, published 2009).
